# Target: T1, UCH-L1 (Homo sapiens, UniProt P09936)
# T1 sequence (P09936 1-223): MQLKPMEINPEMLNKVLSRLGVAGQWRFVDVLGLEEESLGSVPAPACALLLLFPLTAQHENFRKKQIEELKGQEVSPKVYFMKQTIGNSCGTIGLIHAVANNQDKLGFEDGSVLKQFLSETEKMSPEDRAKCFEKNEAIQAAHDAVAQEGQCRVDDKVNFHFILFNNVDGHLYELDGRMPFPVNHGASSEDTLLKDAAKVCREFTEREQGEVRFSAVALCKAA
# Assay: ubiquitin-AMC assay with UCH-L1
# Format: biochemical
# Settings: in vitro
# Protocol: FIG. 6 is a composite figure showing that C527 is a pan-deubiqutinating enzyme inhibitor […]. Ubiquitin-AMC assay was performed using purified (FIG. 6A) USP12/UAF1/WDR20 (FIG. 6B) USP5 and (FIG. 6C) UCH-L1. Enzymes were incubated with DMSO or C527 at indicated concentrations for 3 h, followed by the addition of Ub-AMC at 0.5 μM final concentration. The fluorescence at […] was measured to indicate the enzymatic activity. FIG. 6D is a summary showing the IC50 of C527 against the indicated enzymes.
# The in vitro enzymatic assays were performed using purified proteins from Sf9 cells as described previously (Cohn et al.). The assays using ubiquitin-AMC (Ub-7-amido-4-methylcoumarin; Boston Biochem) as substrate was carried out in a reaction buffer containing 20 mM HEPES-KOH (pH 7.8), 20 mM NaCl, 0.1 mg/ml ovalbumin, 0.5 mM EDTA and 10 mM dithiothreitol. The fluorescence was measured by FluoStar Galaxy Fluorometer (BMG Labtech). For the Ub-vinylsulfone (VS) assay, the proteins were incubated with Ub-VS at 0.5 μM final concentration for 1 h at 30° C., followed by the immunoblotting analysis.
# To examine the specificity of C527 in USP1/UAF1 inhibition, its ability to inhibit other DUB enzymes in vitro was examined. […] Moreover, the active complex of USP12 contains an additional WD40 subunit (WDR20). […]
compound,measurement,value
O=C1c2ccccc2C(=O)c2oc(-c3ccc(F)cc3)nc21 [Formula IV (527)],inhibitory effect on UCH-L1,considerably less inhibitory effect

# From US10653676B2 (Dana-Farber Cancer Institute, Inc., priority 2010, dated 2020)
